Reference: ChEMBL document CHEMBL1201862, “PubChem BioAssay data set” (2004)
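How tested: cells in 96-well plates exposed to compound for 48 hours at five concentrations. GI50: concentration for 50% inhibition of growth.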 The source made the active and inactive calls. Cut-off read from the data, not from the text of the source: active = GI50 up to about 1.1 µM and inactive = higher.

How the values were obtained:
Experiment in all cases: NCI-60 cell line screen, 48 h
[1] = tested on: OVCAR-5
[2] = tested on: HT-29
[3] = tested on: HCC 2998
[4] = tested on: SF-295
[5] = tested on: K562
[6] = tested on: COLO 205
[7] = tested on: Malme-3M
[8] = tested on: T47D
[9] = tested on: DU-145
[10] = tested on: BT-549
[11] = tested on: HL-60
[12] = tested on: NCI-H226
[13] = tested on: 786-0
[14] = tested on: NCI-H23
[15] = tested on: UACC-257
[16] = tested on: SK-OV-3
[17] = tested on: SNB-75
[18] = tested on: MCF7
[19] = tested on: SK-MEL-2
[20] = tested on: SN12C
[21] = tested on: RPMI-8226
[22] = tested on: U-251
[23] = tested on: M14
[24] = tested on: HCT-116
[25] = tested on: SW-620
[26] = tested on: RXF 393
[27] = tested on: MDA-N
[28] = tested on: CAKI-1
[29] = tested on: MDA-MB-231
[30] = tested on: ACHN
[31] = tested on: IGROV-1
[32] = tested on: HOP-62
[33] = tested on: LOX IMVI
[34] = tested on: HCT-15
[35] = tested on: SNB-19
[36] = tested on: NCI-H522
[37] = tested on: EKVX
[38] = tested on: SF-539
[39] = tested on: HOP-92
[40] = tested on: A549
[41] = tested on: MDA-MB-435
[42] = tested on: TK-10
[43] = tested on: NCI-H460
[44] = tested on: SR
[45] = tested on: SF-268
[46] = tested on: SK-MEL-28
[47] = tested on: SK-MEL-5
[48] = tested on: Hs-578T
[49] = tested on: UO-31
[50] = tested on: UACC-62
[51] = tested on: OVCAR-4
[52] = tested on: OVCAR-8
[53] = tested on: OVCAR-3
[54] = tested on: MOLT-4
[55] = tested on: NCI/ADR-RES
[56] = tested on: PC-3
[57] = tested on: A498
[58] = tested on: KM12
[59] = tested on: CCRF-CEM

SMILES: O=C(O)/C=C/c1ccc(OS(=O)(=O)O)cc1
- GI50 [1]: > 100 µM (inactive)
- GI50 [2]: > 100 µM (inactive)
- GI50 [3]: > 100 µM (inactive)
- GI50 [4]: > 100 µM (inactive)
- GI50 [5]: > 100 µM (inactive)
- GI50 [6]: > 100 µM (inactive)
- GI50 [7]: > 100 µM (inactive)
- GI50 [8]: > 100 µM (inactive)
- GI50 [9]: > 100 µM (inactive)
- GI50 [10]: > 100 µM (inactive)
- GI50 [11]: > 100 µM (inactive)
- GI50 [12]: > 100 µM (inactive)
- GI50 [13]: > 100 µM (inactive)
- GI50 [14]: > 100 µM (inactive)
- GI50 [15]: > 100 µM (inactive)
- GI50 [16]: > 100 µM (inactive)
- GI50 [17]: > 100 µM (inactive)
- GI50 [18]: > 100 µM (inactive)
- GI50 [19]: > 100 µM (inactive)
- GI50 [20]: > 100 µM (inactive)
- GI50 [21]: > 100 µM (inactive)
- GI50 [22]: > 100 µM (inactive)
- GI50 [23]: > 100 µM (inactive)
- GI50 [24]: > 100 µM (inactive)
- GI50 [25]: > 100 µM (inactive)
- GI50 [26]: 1.49 µM (inactive)
- GI50 [27]: > 100 µM (inactive)
- GI50 [28]: > 100 µM (inactive)
- GI50 [29]: > 100 µM (inactive)
- GI50 [30]: > 100 µM (inactive)
- GI50 [31]: > 100 µM (inactive)
- GI50 [32]: > 100 µM (inactive)
- GI50 [33]: > 100 µM (inactive)
- GI50 [34]: > 100 µM
- GI50 [35]: > 100 µM (inactive)
- GI50 [36]: > 100 µM (inactive)
- GI50 [37]: > 100 µM (inactive)
- GI50 [38]: > 100 µM (inactive)
- GI50 [39]: > 100 µM (inactive)
- GI50 [40]: > 100 µM (inactive)
- GI50 [41]: > 100 µM (inactive)
- GI50 [42]: > 100 µM (inactive)
- GI50 [43]: > 100 µM (inactive)
- GI50 [44]: > 100 µM (inactive)
- GI50 [45]: > 100 µM (inactive)
- GI50 [46]: > 100 µM (inactive)
- GI50 [47]: > 100 µM (inactive)
- GI50 [48]: > 100 µM (inactive)
- GI50 [49]: > 100 µM (inactive)
- GI50 [50]: > 100 µM (inactive)
- GI50 [51]: > 100 µM (inactive)
- GI50 [52]: > 100 µM (inactive)
- GI50 [53]: > 100 µM (inactive)
- GI50 [54]: > 100 µM (inactive)
- GI50 [55]: > 100 µM (inactive)
- GI50 [56]: > 100 µM (inactive)
- GI50 [57]: > 100 µM (inactive)
- GI50 [58]: > 100 µM (inactive)

SMILES: Cc1ccc(/C=C2\CN(C)CC3=C2OC(N)=C(C#N)C3c2ccc(C)cc2)cc1 (stereo unspecified)
- GI50 [1]: 22.8 µM (inactive)
- GI50 [59]: 4.2 µM (inactive)
- GI50 [2]: 16.1 µM (inactive)
- GI50 [3]: 15.2 µM (inactive)
- GI50 [4]: 16.8 µM (inactive)
- GI50 [5]: 11.2 µM (inactive)
- GI50 [6]: 17 µM (inactive)
- GI50 [7]: 20.3 µM (inactive)
- GI50 [8]: 7.11 µM (inactive)
- GI50 [9]: 17.9 µM (inactive)
- GI50 [10]: 16.7 µM (inactive)
- GI50 [11]: < 0.01 µM (active)
- GI50 [12]: 22.2 µM (inactive)
- GI50 [13]: 15.6 µM (inactive)
- GI50 [14]: 16 µM (inactive)
- GI50 [15]: 18.8 µM (inactive)
- GI50 [16]: 9.84 µM (inactive)
- GI50 [18]: 18 µM (inactive)
- GI50 [19]: 39.9 µM (inactive)
- GI50 [20]: 17.3 µM (inactive)
- GI50 [21]: 9.98 µM (inactive)
- GI50 [22]: 34.7 µM (inactive)
- GI50 [23]: 20.6 µM (inactive)
- GI50 [24]: 12.6 µM (inactive)
- GI50 [25]: 32 µM (inactive)
- GI50 [26]: 11.3 µM (inactive)
- GI50 [27]: 17.2 µM (inactive)
- GI50 [28]: 19.5 µM (inactive)
- GI50 [29]: > 38.5 µM (inactive)
- GI50 [30]: 18.8 µM (inactive)
- GI50 [31]: 7.5 µM (inactive)
- GI50 [32]: 22.7 µM (inactive)
- GI50 [33]: 13.5 µM (inactive)
- GI50 [34]: 14.1 µM
- GI50 [35]: 26.4 µM (inactive)
- GI50 [36]: 12.2 µM (inactive)
- GI50 [37]: 17.1 µM (inactive)
- GI50 [38]: 41.7 µM (inactive)
- GI50 [39]: 1.05 µM (active)
- GI50 [40]: 14.4 µM (inactive)
- GI50 [41]: 15.8 µM (inactive)
- GI50 [42]: 31.5 µM (inactive)
- GI50 [43]: 17.9 µM (inactive)
- GI50 [44]: 19.9 µM (inactive)
- GI50 [45]: 30.1 µM (inactive)
- GI50 [46]: 27.8 µM (inactive)
- GI50 [47]: 25.9 µM (inactive)
- GI50 [48]: 46.3 µM (inactive)
- GI50 [49]: 17.6 µM (inactive)
- GI50 [50]: 18.4 µM (inactive)
- GI50 [51]: 12.2 µM (inactive)
- GI50 [52]: 13.4 µM (inactive)
- GI50 [53]: 12.1 µM (inactive)
- GI50 [54]: 7.76 µM (inactive)
- GI50 [55]: 20.7 µM (inactive)
- GI50 [56]: 15.7 µM (inactive)
- GI50 [57]: 16 µM (inactive)
- GI50 [58]: 15.5 µM (inactive)
